Values of other authors, collected in PMC7904743, “WIDOCK: a reactive docking protocol for virtual screening of covalent inhibitors” (Journal of Computer-Aided Molecular Design, 2021).
Read-outs that look alike come from different tables or passages of the source.

Legend:
[1] = thiol reactivity, cited from earlier work
OTUB2 = OTUB2 protein labeling; experimental actives if % labeling higher than 50%; cited from earlier work
NUDT7 = conditions: protein labeling at 200 μM; experimental actives if % labeling higher than 50%; cited from earlier work
[2] = natural log of average kinetic rate constant
[3] = natural log of average rate constant

Row | Structure (SMILES) | ln(avg k) [1, 2] | ln(avg k) [1, 3] | OTUB2 % labeling (OTUB2) [%] | NUDT7 % labeling (NUDT7) [%]
1 | CCOC(=O)C1CCCCN1C(=O)CCl (centres unmarked) [PCM-0102937, CCOC(=O)C1CCCCN1C(=O)CCl] | -16.030 | -16.030 | 13 | 0
2 | COc1ccc(C2CCCN2C(=O)CCl)cc1 (centres unmarked) [PCM-0102938, COc1ccc(C2CCCN2C(=O)CCl)cc1] | -15.798 | -15.798 | 0 | 100
3 | CN(Cc1ccc(F)cc1)C(=O)CCl [PCM-0102939, CN(Cc1ccc(F)cc1)C(=O)CCl] | -16.214 | -16.214 | 10 | 0
4 | O=C(CCl)N1CCOC2CCCCC21 (centres unmarked) [PCM-0102940, O=C(CCl)N1CCOC2CCCCC21] | -15.696 | -15.696 | 0 | 0
5 | CC(C)N(C(=O)CCl)C1CCCCC1 [PCM-0102941, CC(C)N(C(=O)CCl)C1CCCCC1] | -16.528 | -16.528 | 0 | 17
6 | CN(CC12CC3CC(CC(C3)C1)C2)C(=O)CCl [PCM-0102942, CN(CC12CC3CC(CC(C3)C1)C2)C(=O)CCl] | -15.698 | -15.698 | 10 | 26
7 | Cc1nc(C2(NC(=O)CCl)CCCCCC2)no1 [PCM-0102944, Cc1nc(C2(NC(=O)CCl)CCCCCC2)no1] | -17.037 | -17.037 | 0 | 0
8 | CC1CCN(C(=O)CCl)CC1 [PCM-0102945, CC1CCN(C(=O)CCl)CC1] | -16.826 | -16.826 | 0 | 0
9 | N#Cc1ccc(CNC(=O)CCl)cc1 [PCM-0102946, N#Cc1ccc(CNC(=O)CCl)cc1] | -16.364 | -16.364 | 35 | 0
10 | CC(C)N(C(=O)CCl)C1CCCC1 [PCM-0102948, CC(C)N(C(=O)CCl)C1CCCC1] | -16.391 | -16.391 | 0 | 13
11 | Cc1nn(C)c(C)c1NC(=O)CCl [PCM-0102949, Cc1nn(C)c(C)c1NC(=O)CCl] | -16.344 | -16.344 | 0 | 0
12 | O=C(CCl)NCc1ccccn1 [PCM-0102950, O=C(CCl)NCc1ccccn1] | -17.514 | -17.514 | 0 | 0
13 | O=C(CCl)NC1(c2ccc3c(c2)OCCO3)CCCC1 [PCM-0102951, O=C(CCl)NC1(c2ccc3c(c2)OCCO3)CCCC1] | -16.488 | -16.488 | 0 | 100
14 | O=C(CCl)NNC(=O)c1ccc(Cl)cc1 [PCM-0102953, O=C(CCl)NNC(=O)c1ccc(Cl)cc1] | -17.321 | -17.321 | 18 | 0
15 | O=C(CCl)NNC(=O)c1ccccc1Cl [PCM-0102954, O=C(CCl)NNC(=O)c1ccccc1Cl] | -17.060 | -17.060 | 80 | 0
16 | Cc1ccc(NC(=O)CCl)cc1Br [PCM-0102955, Cc1ccc(NC(=O)CCl)cc1Br] | -16.336 | -16.336 | 14 | 27
17 | O=C(Nc1ccccc1)NN(C(=O)CCl)c1ccccc1 [PCM-0102957, O=C(Nc1ccccc1)NN(C(=O)CCl)c1ccccc1] | -15.066 | -15.066 | 0 | 100
18 | CN(Cc1ccc2c(c1)OCCO2)C(=O)CCl [PCM-0102958, CN(Cc1ccc2c(c1)OCCO2)C(=O)CCl] | -16.177 | -16.177 | 9 | 27

Row | Structure (SMILES) | ln(avg k) [1, 2] | ln(avg k) [1, 3] | OTUB2 % labeling (OTUB2) [%] | NUDT7 % labeling (NUDT7) [%]
19 | Cc1ccc(CNC(=O)CCl)cc1F [PCM-0102959, Cc1ccc(CNC(=O)CCl)cc1F] | -16.344 | -16.344 | 50 | 0
20 | Cc1ccc(C(=O)N2CCN(C(=O)CCl)CC2)cc1 [PCM-0102962, Cc1ccc(C(=O)N2CCN(C(=O)CCl)CC2)cc1] | -15.309 | -15.309 | 0 | 0
21 | CC(=O)c1cccc(NC(=O)CCl)c1 [PCM-0102965, CC(=O)c1cccc(NC(=O)CCl)c1] | -15.751 | -15.751 | 36 | 0
22 | Cc1sc(NC(=O)CCl)c(C)c1C [PCM-0102968, Cc1sc(NC(=O)CCl)c(C)c1C] | -16.020 | -16.020 | 0 | 0
23 | CS(C)(=O)=NC(=O)CCl [PCM-0102969, CS(C)(=O)=NC(=O)CCl] | -15.757 | -15.757 | 0 | 0
24 | O=C(CCl)N1CCN(C(=O)C2CC2)CC1 [PCM-0102970, O=C(CCl)N1CCN(C(=O)C2CC2)CC1] | -15.304 | -15.304 | 0 | 7
25 | CC(c1cc2ccccc2o1)N(C)C(=O)CCl (centres unmarked) [PCM-0102971, CC(c1cc2ccccc2o1)N(C)C(=O)CCl] | -16.092 | -16.092 | 0 | 66
26 | O=C(CCl)N1CCC(C(=O)N2CCCCC2)CC1 [PCM-0102972, O=C(CCl)N1CCC(C(=O)N2CCCCC2)CC1] | -15.512 | -15.512 | 8 | 0
27 | Cc1ccc(CNC(=O)CCl)s1 [PCM-0102973, Cc1ccc(CNC(=O)CCl)s1] | -16.818 | -16.818 | 75 | 11
28 | CC(C)N(C)C(=O)C1CCN(C(=O)CCl)CC1 [PCM-0102974, CC(C)N(C)C(=O)C1CCN(C(=O)CCl)CC1] | -15.247 | -15.247 | 0 | 0
29 | COC(=O)c1cccc(NC(=O)CCl)n1 [PCM-0102977, COC(=O)c1cccc(NC(=O)CCl)n1] | -16.790 | -16.790 | 0 | 0
30 | COC(=O)C1CCN(C(=O)CCl)CC1 [PCM-0102978, COC(=O)C1CCN(C(=O)CCl)CC1] | -16.559 | -16.559 | 0 | 0
31 | CCN(C(=O)CCl)c1ccccc1C [PCM-0102980, CCN(C(=O)CCl)c1ccccc1C] | -16.814 | -16.814 | 0 | 43
32 | CC(C)(C)OC(=O)CNC(=O)CCl [PCM-0102981, CC(C)(C)OC(=O)CNC(=O)CCl] | -17.661 | -17.661 | 0 | 0
33 | Cc1nc(C2(NC(=O)CCl)CCCCC2)no1 [PCM-0102983, Cc1nc(C2(NC(=O)CCl)CCCCC2)no1] | -17.277 | -17.277 | 0 | 10
34 | CN(Cc1ccccc1)C(=O)CCl [PCM-0102984, CN(Cc1ccccc1)C(=O)CCl] | -16.386 | -16.386 | 0 | 11
35 | O=C(CCl)NNC(=O)c1ccco1 [PCM-0102985, O=C(CCl)NNC(=O)c1ccco1] | -17.545 | -17.545 | 27 | 0
